Among the test systems are TK-10; Hs-578T; RXF 393; EKVX; NCI/ADR-RES; OVCAR-4; CAKI-1; HCT-116; HL-60; NCI-H226; UACC-62; HCT-15; PC-3; MCF7; SK-OV-3; SF-268; CCRF-CEM; UACC-257; HT-29.
Test in all cases: NCI-60 cell line screen, 48 h

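Following 48 hours of exposure in 96-well plates, responses at five concentrations were used to interpolate endpoints linearly. Here, GI50 denotes the concentration required for 50% inhibition of growth.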 The source made the active and inactive calls. Cut-off read from the data, not from the text of the source: active = GI50 up to about 1.1 µM and inactive = higher.

For the compound `C=C1CC(CNc2cc(Cl)nc(N)n2)C1`, the GI50 was > 100 µM (inactive) in the experiment with TK-10; 51.4 µM (inactive) in the experiment with Hs-578T; 50.9 µM (inactive) in the experiment on RXF 393; 23.1 µM (inactive) with EKVX; 62.7 µM (inactive) in the experiment with NCI/ADR-RES; 57.1 µM (inactive) in the experiment on OVCAR-4. For the same compound, the GI50 in the experiment on CAKI-1 is 74.5 µM (inactive); with HCT-116 it was > 10 µM (inactive); in the experiment with HL-60, > 100 µM (inactive); in the experiment on NCI-H226, 54.2 µM (inactive); in the experiment with UACC-62, > 100 µM (inactive); with HCT-15 it was 67.8 µM. The GI50 in the experiment on PC-3 was > 100 µM (inactive); in the experiment on MCF7, > 100 µM (inactive); with SK-OV-3, 44.9 µM (inactive); in the experiment with SF-268, > 100 µM (inactive); with CCRF-CEM, > 100 µM (inactive); with UACC-257 it was 39.6 µM (inactive). Further, the GI50 in the experiment on HT-29 was > 100 µM (inactive).

Regarding `CCCCCCc1cc2cc(-c3csc(CC#N)n3)c(=O)oc2cc1O`, the GI50 in the experiment on TK-10 is > 100 µM (inactive); in the experiment on Hs-578T it was 12.4 µM (inactive); in the experiment on RXF 393 it was > 33.2 µM (inactive); with EKVX it was > 100 µM (inactive); in the experiment with NCI/ADR-RES, 6.35 µM (inactive); in the experiment with OVCAR-4, 3.45 µM (inactive). The GI50 was > 44.6 µM (inactive) with CAKI-1; 5.89 µM (inactive) with HCT-116; > 44.3 µM (inactive) in the experiment with HL-60; 22.9 µM (inactive) in the experiment on NCI-H226; 14.4 µM (inactive) in the experiment on UACC-62; above 100 µM with HCT-15. In addition, the GI50 was > 100 µM (inactive) in the experiment with PC-3; > 49.4 µM (inactive) in the experiment on MCF7; 13.3 µM (inactive) in the experiment on SK-OV-3; 18.7 µM (inactive) in the experiment on SF-268; > 49.2 µM (inactive) in the experiment on CCRF-CEM; > 100 µM (inactive) with UACC-257. Also, the GI50 with HT-29 was > 100 µM (inactive).

As to `C=CCOC(=O)[C@@H]1C[C@@H](OC(C)(C)C)CN1C(=O)[C@@H]1[C@H]2OC(C)(C)O[C@H]2CN1C(=O)OCC1c2ccccc2-c2ccccc21`, the GI50 with TK-10 was 18.4 µM (inactive); with Hs-578T, 21.1 µM (inactive); with RXF 393, 10.2 µM (inactive); in the experiment with EKVX, 5.05 µM (inactive); in the experiment on NCI/ADR-RES, 3.68 µM (inactive); with OVCAR-4, 17.2 µM (inactive). Besides, the GI50 in the experiment with CAKI-1 was 4.88 µM (inactive); with HCT-116 it was 17.4 µM (inactive); in the experiment with HL-60, 11 µM (inactive); in the experiment with NCI-H226 it was 21.5 µM (inactive); in the experiment on UACC-62, 17.7 µM (inactive); in the experiment on HCT-15, 11.4 µM. The GI50 was 15.7 µM (inactive) in the experiment with PC-3; 48.4 µM (inactive) with MCF7; 17.2 µM (inactive) in the experiment with SK-OV-3; 20.8 µM (inactive) in the experiment on SF-268; 16.6 µM (inactive) in the experiment with CCRF-CEM; 17.5 µM (inactive) with UACC-257. In the experiment on HT-29, the GI50 is 17.2 µM (inactive).

As to `CCOCc1nc2c(OC)c(-c3nc4ccc(N5CCN(C)CC5)cc4[nH]3)cc(OC)c2[nH]1`, the GI50 in the experiment on TK-10 is 53.3 µM (inactive); in the experiment on Hs-578T, 34.2 µM (inactive); with RXF 393, 16 µM (inactive); with EKVX, > 100 µM (inactive); with NCI/ADR-RES it was > 100 µM (inactive); in the experiment with OVCAR-4 it was 71.8 µM (inactive). Also, the GI50 was 27.6 µM (inactive) in the experiment on CAKI-1; 34 µM (inactive) in the experiment on HCT-116; 4.39 µM (inactive) in the experiment on HL-60; 31.9 µM (inactive) in the experiment on NCI-H226; 19.6 µM (inactive) with UACC-62; 44.2 µM with HCT-15. In addition, the GI50 is 63.4 µM (inactive) with PC-3; 47.6 µM (inactive) in the experiment on MCF7; 71.4 µM (inactive) in the experiment on SK-OV-3; 63.4 µM (inactive) in the experiment on SF-268; 12.7 µM (inactive) in the experiment on CCRF-CEM; 19 µM (inactive) in the experiment with UACC-257. Besides, the GI50 with HT-29 was 27.8 µM (inactive).

As to `CCOc1ccccc1/N=C\c1c2ccccc2cc2ccccc12`, the GI50 was 25 µM (inactive) with TK-10; 15.3 µM (inactive) with Hs-578T; 15.7 µM (inactive) in the experiment on RXF 393; 18.1 µM (inactive) in the experiment with EKVX; 23.1 µM (inactive) in the experiment with NCI/ADR-RES; 24.3 µM (inactive) with OVCAR-4. Also, the GI50 with CAKI-1 was 24.2 µM (inactive); in the experiment on HCT-116 it was 18.4 µM (inactive); with HL-60 it was 16 µM (inactive); with NCI-H226, 46.5 µM (inactive); with UACC-62, 38.5 µM (inactive); with HCT-15, 24.4 µM. In addition, the GI50 in the experiment with PC-3 was 23.3 µM (inactive); with MCF7, 29.4 µM (inactive); in the experiment with SK-OV-3 it was 22.3 µM (inactive); with SF-268, 21.2 µM (inactive); with CCRF-CEM it was 9.29 µM (inactive); in the experiment with UACC-257, 31.1 µM (inactive). Also, the GI50 in the experiment with HT-29 is 21.6 µM (inactive).

`OC(C1CCCC1=N/N=C1/CCCC1C(O)(C(F)(F)Cl)C(F)(F)Cl)(C(F)(F)Cl)C(F)(F)Cl` (stereo not given): the GI50 with TK-10, with Hs-578T, in the experiment with RXF 393, in the experiment on EKVX, with NCI/ADR-RES and in the experiment on OVCAR-4 was > 10 µM (inactive) throughout. In addition, the GI50 in the experiment with CAKI-1 was > 10 µM (inactive); with HCT-116 it was > 10 µM (inactive); in the experiment on HL-60, > 10 µM (inactive); in the experiment on NCI-H226, > 10 µM (inactive); in the experiment on UACC-62 it was > 10 µM (inactive); in the experiment with HCT-15 it was above 10 µM. Moreover, the GI50 with PC-3, with MCF7, with SK-OV-3, in the experiment with SF-268, in the experiment on CCRF-CEM and in the experiment on UACC-257 was > 10 µM (inactive) in each case. In addition, in the experiment with HT-29, the GI50 was > 10 µM (inactive).

Regarding `O=C1OC(OC/C(Br)=C(/Br)COC2OC(=O)C(Cl)=C2Cl)C(Cl)=C1Cl` (stereo not given), the GI50 with TK-10 is 13.5 µM (inactive); with Hs-578T it was 13 µM (inactive); in the experiment on RXF 393, 5.09 µM (inactive); in the experiment on EKVX it was 16.1 µM (inactive); in the experiment with NCI/ADR-RES, 6.7 µM (inactive); in the experiment on OVCAR-4 it was 7.6 µM (inactive). Besides, the GI50 was 3.15 µM (inactive) in the experiment on CAKI-1; 3.13 µM (inactive) in the experiment on HCT-116; 1.71 µM (inactive) in the experiment on HL-60; 26.2 µM (inactive) with NCI-H226; 14 µM (inactive) with UACC-62; 9.29 µM in the experiment with HCT-15. Also, the GI50 in the experiment with PC-3 was 15.8 µM (inactive); with MCF7 it was 12.9 µM (inactive); with SK-OV-3 it was 26.9 µM (inactive); in the experiment on SF-268, 9.82 µM (inactive); with CCRF-CEM, 1.71 µM (inactive); in the experiment with UACC-257, 12.1 µM (inactive). In addition, the GI50 in the experiment with HT-29 was 4.93 µM (inactive).

In the case of `COC(=O)C1(Cc2ccc3c(c2)CCC3)Cc2ccc3c(c2C1O)CCC3` (stereo not given), the GI50 in the experiment with TK-10 was 17.3 µM (inactive); in the experiment with Hs-578T, 17.3 µM (inactive); with RXF 393 it was 14.5 µM (inactive); in the experiment with EKVX it was 8.89 µM (inactive); with NCI/ADR-RES, 12.6 µM (inactive); in the experiment on OVCAR-4, 5.79 µM (inactive). The GI50 is 14.2 µM (inactive) in the experiment on CAKI-1; 11.8 µM (inactive) with HCT-116; 23.1 µM (inactive) with HL-60; 18.5 µM (inactive) in the experiment with NCI-H226; 15.5 µM (inactive) in the experiment with UACC-62; above 10 µM in the experiment with HCT-15. The GI50 in the experiment on PC-3 is 15.1 µM (inactive); in the experiment with MCF7, 12.9 µM (inactive); with SK-OV-3, 18.5 µM (inactive); in the experiment with SF-268, 21 µM (inactive); in the experiment with CCRF-CEM, > 100 µM (inactive); in the experiment on UACC-257, 10.7 µM (inactive). The GI50 with HT-29 is 15.2 µM (inactive).

In the case of `COC(=O)[C@]1(c2cc3ccccc3n2S(=O)(=O)c2ccccc2)CC2CN(C(C)=O)C1CC2=O` (stereo not given in full), the GI50 in the experiment with TK-10 is 7.73 µM (inactive); with Hs-578T, 5.94 µM (inactive); in the experiment with RXF 393, 1.77 µM (inactive); with EKVX, 2.02 µM (inactive); in the experiment with NCI/ADR-RES, 2.87 µM (inactive); with OVCAR-4, 3.58 µM (inactive). Also, the GI50 in the experiment on CAKI-1 was 2.68 µM (inactive); in the experiment with HCT-116, 1.89 µM (inactive); in the experiment on HL-60 it was 1.34 µM (inactive); in the experiment with NCI-H226, 2.17 µM (inactive); in the experiment on UACC-62, 1.67 µM (inactive); in the experiment on HCT-15 it was 2.48 µM. The GI50 is 1.64 µM (inactive) in the experiment on PC-3; 1.69 µM (inactive) with MCF7; 8.13 µM (inactive) in the experiment on SK-OV-3; 2.34 µM (inactive) with SF-268; 0.637 µM (active) in the experiment with CCRF-CEM; 2.77 µM (inactive) in the experiment with UACC-257. The GI50 with HT-29 was 1.96 µM (inactive).

Regarding `CC1(C)CCCCCCC2OC2CCCCCC(C)(C)C1=O` (stereo not given), the GI50 in the experiment with TK-10 is > 100 µM (inactive); in the experiment on Hs-578T, 45.1 µM (inactive); in the experiment with RXF 393, 20.1 µM (inactive); in the experiment with EKVX it was 60.1 µM (inactive); with NCI/ADR-RES, 25.9 µM (inactive); in the experiment with OVCAR-4, 46.2 µM (inactive). Also, the GI50 in the experiment on CAKI-1 is 20.5 µM (inactive); with HCT-116, 35.8 µM (inactive); with HL-60, 22.4 µM (inactive); with NCI-H226, > 56.4 µM (inactive); with UACC-62 it was 19 µM (inactive); with HCT-15, above 89.5 µM. Also, the GI50 was 35.1 µM (inactive) in the experiment with PC-3; 26.4 µM (inactive) with MCF7; 69.8 µM (inactive) in the experiment with SK-OV-3; 50.2 µM (inactive) in the experiment on SF-268; 28.2 µM (inactive) in the experiment on CCRF-CEM; 30.7 µM (inactive) in the experiment with UACC-257. The GI50 with HT-29 was 25.9 µM (inactive).

Values taken from ChEMBL document CHEMBL1201862, “PubChem BioAssay data set” (2004).
